Laboratory results taken from patent publication US20250002854A1, “METHODS OF GENERATING POPULATIONS OF TUMOUR-INFILTRATING T CELLS” (LYTIX BIOPHARMA AS, priority 2016, published 2025).
Square brackets hold non-standard residues; d marks the D form. Ends that are not written are not given here. Dip = N[C@H](C(=O)O)C(c1ccccc1)c1ccccc1

Tested on: A375 cells
Assay: Confocal microscopy, internalization of fluorescence-labeled peptide
Assay type: cell-based, human
Description: The A375 cell line A375 (ECACC, 88113005) is a human malignant melanoma derived from patient material, and was purchased from Public Health England (PHE Culture Collections, Porton Down, Salisbury, UK). Cells were maintained as monolayer cultures in high glucose […] DMEM supplemented with 10% FBS and 1% L-glutamine, but not as antibiotics (complete media). The cell line was grown in a humidified 5% CO2 atmosphere at 37° C., and was regularly tested for the presence of mycoplasma with MycoAlert (Lonza).
Fixed cells, fluorescence-labeled peptide—Subconfluential A375 cells were seeded at 8,000 cells/well as above, and transfected on the second day using the Lipofectamine LTX with Plus transfection reagents (Invitrogen) following the manufacturer's protocol. The mitochondria were labeled using the pDsRed2-Mito, and the nucleus was labeled using the GFP-Histon2B plasmid (Imaging Platform, University of Tromsø). A day after transfection, cells were washed twice with serum-free RPMI, and treated at different concentration and incubation periods with LTX-315 Pacific Blue or LTX-328 Pacific Blue. […] Control cells were treated with unlabeled LTX-315 and also with serum-free RPMI only. After incubation, cells were fixed with 4% paraformaldehyde in PBS, and the wells were covered with Prolong Gold antifade (Invitrogen). Cells were further analyzed by use of a Leica TCS SP5 confocal microscope, with a […] objective. Pacific Blue, GFP and Ds Red were excited using UV, with 488 and 561 lasers, and fluorescence channels were sequentially detected using the following band passes: UV: 420-480 nm (with attenuation), 488: 501-550 nm and 561: 576-676 nm.

Question: Which results are given for “KAQ[Dip]QKQAW-NH2 [LTX-328, reference compound]”?
Answer: internalization of peptide (3 μM, 60 min): not internalized; internalization of Pacific Blue-labelled peptide (A375 cells, 3 μM and 1.5 μM): did not demonstrate any internalization
